In brackets after ≈: the same amount, converted by molar mass. Where two headings read alike, the source gives them in different places.
Legend:
MCF-10 cells = test: Mammalian cell toxicity (Alamar Blue); format: cell-based; conditions: read-out: IC50 MCF-10
Experimental: Adherent cell lines were maintained in Eagle's Minimal Essential Media (Sigma-Aldrich, St. Louis, MO, USA) with 2 mM glutamine and Earle's Balanced Salt Solution (HyClone, Logan, UT, USA) adjusted to contain 1.5 g/L sodium bicarbonate, 0.1 mM non-essential amino acids, 1 mM sodium pyruvate and 10% fetal calf serum. Fetal calf serum used in these assays was lot matched throughout. […] Toxicity assays were conducted between passages 10–20. Target compound toxicity was measured by incubating the test compound with the cells for 4 h, washing the cells and finally treating the cells with Alamar Blue. After 12–24 h, the fluorescence of the reduced dye was measured. Fluorescence intensity as a function of test compound concentration was fit to the Fermi equation, using non-linear least squares regression analysis, to estimate IC50 values.

S. aureus DHFR = target: T1, S. aureus DHFR (Staphylococcus aureus, UniProt P0A017); test: biochemical; format: biochemical
T1 construct: the DHFR gene was inserted into vector pET41 with a His8 tag for purification; His8; made in house; host or cells: E. coli BL21 (DE3)
Experimental: (§1) S. aureus DHFR was cloned, expressed and purified as previously described. Briefly, the DHFR gene was inserted into vector pET41 with a His8 tag for purification. The protein was expressed in E. coli BL21 (DE3) cells. […] The protein was concentrated to ∼5 mg/mL. S. pyogenes DHFR was cloned using PCR from genomic DNA and inserted in vector pET-41.
(§2) Enzyme inhibition assays were performed by monitoring the rate of NADPH oxidation by the DHFR enzyme at an absorbance of 340 nm over five minutes. Assays were performed in the presence of saturating concentrations of NADPH (100 µM) and initiated with dihydrofolate (1 mM). All assays were completed at 25°C in a buffer containing 20 mM TES pH 7.0, 50 mM KCl, 10 mM 2-mercaptoethanol, 0.5 mM EDTA and 1 mg/mL BSA. Inhibition was measured at least three times with inhibitor concentrations near the IC50 value and the average IC50 value is reported with a standard deviation.

S. pyogenes DHFR = S. pyogenes DHFR (Streptococcus pyogenes, UniProt Q9A091); test: biochemical; format: biochemical; conditions: for Selectivity (h/Sp): IC50 (human)/IC50 (pathogen); for IC50: S. pyogenes DHFR, average of at least three measurements, read-out: IC50 (nM) Sp
Experimental: as §1, §2

Streptococcus pyogenes = test: MIC, broth microdilution with Alamar Blue; format: cell-based; conditions: for Selectivity S. pyogenes: IC50 (MCF10)/MIC (pathogen), both values in µM
Experimental: (§3) Stock solutions of standard antibiotics and test compounds were made at 50 mM in DMSO. […] For susceptibility testing, 10 µL of glycerol stock was suspended in a 10 mL shake flask culture of chemically defined Isosensitest broth (Oxoid) supplemented with 2% w/v glucose. A sample of the shake flask culture was diluted to 1×10^6 cells/mL in media and added to 96-well test plates (100 µL per well) containing test compounds dispensed in DMSO (2 µL) using serial two-fold dilutions. After an incubation period (30°C) determined from the strain specific doubling time, a 0.03% w/v aqueous solution of resazurin (10 µL) was added and the plates were allowed to incubate; each well was then scored for dye reduction.

Human DHFR = target: T2, Human DHFR (Homo sapiens, UniProt P00374); test: DHFR enzyme inhibition assay (NADPH oxidation, 340 nm); format: biochemical
T2 sequence (P00374 1-187): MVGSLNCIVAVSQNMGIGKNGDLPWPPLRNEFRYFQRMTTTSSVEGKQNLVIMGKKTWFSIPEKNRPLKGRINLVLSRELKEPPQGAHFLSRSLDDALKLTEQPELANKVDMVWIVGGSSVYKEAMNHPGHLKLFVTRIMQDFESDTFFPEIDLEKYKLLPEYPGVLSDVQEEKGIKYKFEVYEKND
Experimental: as §2

MRSA (S.aureus 13709) = test: MIC, broth microdilution with Alamar Blue; format: cell-based, Staphylococcus aureus; conditions: for Selectivity MRSA: IC50 (MCF10)/MIC (pathogen), both values in µM
Experimental: as §3

HepG2 cells = test: Mammalian cell toxicity (Alamar Blue); format: cell-based; conditions: Homo sapiens, cytotoxicity, 4 h incubation
Experimental: Fetal calf serum used in these assays was lot matched throughout. All cultures were maintained under a humidified 5% CO2 atmosphere at 37°C, had media refreshed twice weekly and were subcultured by trypsinization and resuspension at a ratio of 1∶5 each week. Toxicity assays were conducted between passages 10–20. Target compound toxicity was measured by incubating the test compound with the cells for 4 h, washing the cells and finally treating the cells with Alamar Blue. After 12–24 h, the fluorescence of the reduced dye was measured. Fluorescence intensity as a function of test compound concentration was fit to the Fermi equation, using non-linear least squares regression analysis, to estimate IC50 values.

[1] = Homo sapiens, MCF10, cytotoxicity, 4 h incubation
[2] = S. aureus DHFR, average of at least three measurements, read-out: IC50 (nM) Sa
[3] = Streptococcus pyogenes, 10% FCS, read-out: MIC S. pyogenes +FCS
[4] = Streptococcus pyogenes, 10% FCS, value in parentheses, read-out: MIC S. pyogenes +FCS
[5] = Streptococcus pyogenes, value in parentheses, read-out: MIC S. pyogenes
[6] = Streptococcus pyogenes, read-out: MIC S. pyogenes
[7] = human DHFR, average of at least three measurements, read-out: IC50 (nM) Human
[8] = Staphylococcus aureus, MRSA, 10% fetal calf serum, read-out: MIC MRSA +FCS
[9] = Staphylococcus aureus, MRSA, 10% fetal calf serum, value in parentheses, read-out: MIC MRSA +FCS
[10] = Staphylococcus aureus, MRSA, value in parentheses, read-out: MIC MRSA
[11] = Staphylococcus aureus, MRSA, read-out: MIC MRSA
[12] = 10% FCS, value in parentheses, read-out: MIC S. pyogenes +FCS
[13] = value in parentheses, read-out: MIC S. pyogenes
[14] = 10% fetal calf serum, value in parentheses, read-out: MIC MRSA +FCS
[15] = value in parentheses, read-out: MIC MRSA

Chain of S. pyogenes DHFR (Q9A091 entry or part of it): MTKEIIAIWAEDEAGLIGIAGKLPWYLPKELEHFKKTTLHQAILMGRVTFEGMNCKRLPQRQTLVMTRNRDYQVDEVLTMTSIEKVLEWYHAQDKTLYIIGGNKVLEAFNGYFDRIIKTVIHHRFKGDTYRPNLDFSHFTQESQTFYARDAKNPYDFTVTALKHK
T1 sequence (P0A017 whole entry): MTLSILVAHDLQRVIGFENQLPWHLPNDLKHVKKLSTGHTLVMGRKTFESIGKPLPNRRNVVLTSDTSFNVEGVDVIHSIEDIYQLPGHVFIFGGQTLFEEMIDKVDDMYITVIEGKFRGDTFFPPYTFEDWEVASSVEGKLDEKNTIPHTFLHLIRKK

Row | SMILES | IC50 (MCF-10 cells; [1]) | IC50 (S. aureus DHFR; [2]) | Selectivity (h/Sp) (S. pyogenes DHFR) | Selectivity S. pyogenes (Streptococcus pyogenes) | MIC (Streptococcus pyogenes; [3]) | MIC (Streptococcus pyogenes; [4]) | MIC (Streptococcus pyogenes; [5]) | MIC (Streptococcus pyogenes; [6]) | IC50 (Human DHFR; [7]) | Selectivity MRSA (MRSA (S.aureus 13709)) | MIC (MRSA (S.aureus 13709); [8]) | MIC (MRSA (S.aureus 13709); [9]) | MIC (MRSA (S.aureus 13709); [10]) | MIC (MRSA (S.aureus 13709); [11]) | IC50 (HepG2 cells) | Selectivity (h/Sa) (S. aureus DHFR; IC50 (human)/IC50 (pathogen)) | IC50 (MCF-10 cells; cytotoxicity, 4 h incubation) | IC50 (S. pyogenes DHFR) | MIC S. pyogenes (Streptococcus pyogenes) | MIC MRSA (MRSA (S.aureus 13709)) | also measured
1 | COc1ccc(-c2ccccc2)cc1C(C)C#Cc1c(C)nc(N)nc1N (stereo not drawn) [Compound 10] | 38000 nM | 75 ± 4 nM | 4 | 76 | 5.7 µg/mL | 16 µM | 0.5 µM | 0.18 µg/mL | 97 ± 10 nM | 19 | 11.4 µg/mL | 32 µM | 2 µM | 0.72 µg/mL | 94000 nM |  |  |  |  |  | Selectivity (h/Sa) (S. aureus DHFR): 1.3
2 | CCc1nc(N)nc(N)c1C#CCc1cc(-c2ccccc2)ccc1OC [Compound 7] | 67000 nM | 2.4 ± 0.2 nM | 51 | 4,187 |  |  | 0.016 µM | 0.006 µg/mL | 300 ± 10 nM | 67 |  |  | 1 µM | 0.18 µg/mL |  | 125 |  |  |  |  | fold improvement in potency against S. aureus DHFR (S. aureus DHFR; relative to compound 1): 18 fold
3 | CCc1nc(N)nc(N)c1C#CCc1cc(OC)cc(-c2ccccc2)c1 [Compound 9] |  | 59 ± 2.3 nM | 3 |  |  |  |  |  | 140 ± 1 nM |  |  |  |  |  |  | 2.4 | 199000 nM | 52 ± 1.7 nM | 0.18 µg/mL (≈ 0.502 µM) | 0.18 µg/mL (≈ 0.502 µM) | MIC S. pyogenes +FCS (Streptococcus pyogenes; 10% FCS): 0.72 µg/mL (≈ 2.01 µM); MIC (Streptococcus pyogenes; [12]): 2 µM; MIC (Streptococcus pyogenes; [13]): 0.5 µM; MIC MRSA +FCS (MRSA (S.aureus 13709); 10% fetal calf serum): 1.4 µg/mL (≈ 3.91 µM); MIC (MRSA (S.aureus 13709); [14]): 4 µM; MIC (MRSA (S.aureus 13709); [15]): 0.5 µM
4 | CCc1nc(N)nc(N)c1C#CCc1cccc(-c2ccccc2)c1 [Compound 8] |  | 28 ± 1.7 nM | 11 |  |  |  |  |  | 290 ± 36 nM |  |  |  |  |  |  | 10 | 32000 nM | 26 ± 1.7 nM | 0.66 µg/mL (≈ 2.01 µM) | 0.66 µg/mL (≈ 2.01 µM) | MIC S. pyogenes +FCS (Streptococcus pyogenes; 10% FCS): 2.6 µg/mL (≈ 7.92 µM); MIC (Streptococcus pyogenes; [12]): 8 µM; MIC (Streptococcus pyogenes; [13]): 2 µM; MIC MRSA +FCS (MRSA (S.aureus 13709); 10% fetal calf serum): 5.2 µg/mL (≈ 15.8 µM); MIC (MRSA (S.aureus 13709); [14]): 16 µM; MIC (MRSA (S.aureus 13709); [15]): 2 µM
5 | CCc1nc(N)nc(N)c1C#CC(C)c1cc(-c2ccccc2)ccc1OC (stereo not drawn) [Compound 11] | 54000 nM | 67 ± 5.5 nM | 4 | 27 | 6 µg/mL | 16 µM | 2 µM | 0.74 µg/mL | 100 ± 10 nM | 27 | 11.9 µg/mL | 32 µM | 2 µM | 0.74 µg/mL | 77000 nM | 1.5 |  |  |  |  | 
6 | CCc1nc(N)nc(N)c1C#CCc1cccc(-c2cncnc2)c1 [Compound 37] | > 500000 nM |  | 7 | >1,000 | 0.16 µg/mL | 0.5 µM | 0.5 µM | 0.16 µg/mL |  | >1,000 | 0.16 µg/mL | 0.5 µM | 0.5 µM | 0.16 µg/mL |  | 5 |  |  |  |  | IC50 (S. aureus DHFR): 35 ± 1.1 nM; IC50 (Human DHFR): 160 ± 13 nM
7 | COc1cc(C(C)C#Cc2c(C)nc(N)nc2N)cc(N2CCOCC2)c1 (stereo not drawn) [Compound 31] | 462000 nM | 29 ± 2 nM | 15 | 58 | 2.94 µg/mL | 8 µM | 8 µM | 2.94 µg/mL | 400 ± 40 nM | 116 | 2.94 µg/mL | 8 µM | 4 µM | 1.5 µg/mL | 494000 nM | 14 |  |  |  |  | 
8 | COc1cc(-c2cc(C)cc(C)c2)cc(C(C)C#Cc2c(C)nc(N)nc2N)c1 (stereo not drawn) [Compound 1] |  |  |  |  |  |  | 0.25 µM | 0.1 µg/mL |  |  |  |  | 16 µM | 5.8 µg/mL |  |  |  |  | 0.097 µg/mL (≈ 0.251 µM) | 5.76 µg/mL (≈ 14.9 µM) | IC50 (MCF-10 cells; Homo sapiens, MCF10, 4 h): 47000 nM
9 | COc1cc(-c2ccc(C)cc2)cc(C(C)C#Cc2c(C)nc(N)nc2N)c1 (racemic) [Compound 2] |  | 410 ± 36 nM |  |  |  |  |  |  |  |  |  |  |  |  |  |  | 55000 nM | 350 ± 44 nM | 0.024 µg/mL (≈ 0.0644 µM) | 0.71 µg/mL (≈ 1.91 µM) | MIC (Streptococcus pyogenes; [13]): 0.064 µM; MIC (MRSA (S.aureus 13709); [15]): 2 µM
